pEC50: −log10 of the molar value.

One may read the pEC50 as the EC50 on a negative log10 scale, so that one unit is a factor of ten. Low values mean a large EC50, high ones a small EC50.

One assay has as its system HT-1080 cells. The assay is described as follows: HT-1080 cell viability assay (ferroptosis induced by RSL3, Cell Titer-Glo). The class given is cell-based. The settings on record: Homo sapiens, HT-1080, 20 h, ferroptosis inducer RSL3, 20 hours, ferroptosis inhibitory activity, Table 2. The procedure, abridged:
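EC50 fitted by sigmoidal dose-response regression on luminescent viability data normalized to untreated cells. Compounds ran as a 10-point, 3-fold series from 1.1 μM alongside RSL3 for 20 hours, after overnight seeding.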
On the technique in general: ATP-based viability assays read luminescence as a measure of living cells.
As to `CC1(C)CCc2cc(NC3CCC(N)CC3)ccc21` (stereo not shown) [Compound 330A, N1-(1,1-dimethyl-2,3-dihydro-1H-inden-5-yl)cyclohexane-1,4-diamine], the pEC50 was 7.00 to 10.00. The compound `CC(C)(C)c1ccc(NCCN2CCOCC2)cc1` [Compound 206, U4-(tert-butyl)-N-(2-morpholinoethyl)aniline] had a pEC50 of 5.00 to 6.00. Consider `CC[C@@H]1CN(c2ccc(NC3CCC(N)CC3)c(C)n2)C[C@H](C)O1` (stereo partly drawn) [Compound 551, N1-(6-((2R,6S)-2-ethyl-6-methylmorpholino)-2-methylpyridin-3-yl)cyclohexane-1,4-diamine], for which the pEC50 is 6.00 to 7.00. With `Cc1cc(N2CCC(C(F)(F)F)CC2)c(Cl)cc1NC1CCC(N)CC1` (stereo not shown) [Compound 56, N1-(5-chloro-2-methyl-4-(4-(trifluoromethyl)piperidin-1-yl)phenyl)cyclohexane-1,4-diamine], the pEC50 is 7.00 to 10.00.

Turning to `Cc1cc(NC2CCC(N)CC2)ccc1N1CCC(C(F)(F)F)CC1` (stereo not shown) [Compound 66, N1-(3-methyl-4-(4-(trifluoromethyl)piperidin-1-yl)phenyl)cyclohexane-1,4-diamine], the pEC50 is 7.00 to 10.00.

In turn, `CC(C)C1CCN(c2ncc(NC3CC4(CC(NCC(F)(F)F)C4)C3)cn2)CC1` (stereo not shown) [Compound 414, N2-(2-(4-isopropylpiperidin-1-yl)pyrimidin-5-yl)-N6-(2,2,2-trifluoroethyl)spiro[3.3]heptane-2,6-diamine] had a pEC50 of 7.00 to 10.00.

`N[C@H]1CC[C@H](CNc2ccc(N3CC4CCC(C3)O4)c(F)c2)CC1` [Compound 472, N-(((1r,4r)-4-aminocyclohexyl)methyl)-4-(8-oxa-3-azabicyclo[3.2.1]octan-3-yl)-3-fluoroaniline] gave a pEC50 of 7.00 to 10.00. Still for that read-out and setting: in the case of `CC1(N)CCC(Nc2ccc3c(c2)CCCC3)CC1` (stereo not shown) [Compound 119, 1-methyl-N4-(5,6,7,8-tetrahydronaphthalen-2-yl)cyclohexane-1,4-diamine] it was 7.00 to 10.00; in that of `CN[C@H]1CC[C@H](CNc2ccc(N3CC(C)OC(C)C3)cc2)CC1` (stereo partly shown) [Compound 420, 4-(2,6-dimethylmorpholino)-N-(((1r,4r)-4-(methylamino)cyclohexyl)methyl)aniline], 7.00 to 10.00; in that of `CC(C)C1CCN(c2ncc(NC[C@H]3CC[C@H](N)CC3)cn2)CC1` [Compound 360, N-(((1r,4r)-4-aminocyclohexyl)methyl)-2-(4-isopropylpiperidin-1-yl)pyrimidin-5-amine], 7.00 to 10.00. `CC(C)C1CCN(c2ncc(NC3CC(CN)C3)cn2)CC1` (stereo not shown) [Compound 49, N-(3-(aminomethyl)cyclobutyl)-2-(4-isopropylpiperidin-1-yl)pyrimidin-5-amine] showed a negative-log EC50 (pEC50) of 7.00 to 10.00. In the case of `CCOCCN(CCCCOC)CCNc1ccc(C(C)(C)C)cc1` [Compound 256, N1-(4-(tert-butyl)phenyl)-N2-(2-ethoxyethyl)-N2-(4-methoxybutyl) ethane-1,2-diamine], the pEC50 was 5.00 to 6.00. In turn, `CC(C)(C)c1ccc(NC2CCC(CCCN)CC2)cc1` (stereo not shown) [Compound 287, N-(4-(3-aminopropyl)cyclohexyl)-4-(tert-butyl)aniline] gave a pEC50 of 7.00 to 10.00. On the same count and under the same terms, in the case of `CN1CC(C)(C)c2ccc(NC3CCC(N)CC3)cc21` (stereo not shown) [Compound 343, N1-(1,3,3-trimethylindolin-6-yl)cyclohexane-1,4-diamine] it was 7.00 to 10.00. `Cc1cc(NC2CCC(C)(N)CC2)cc(C)c1C` (single isomer, unassigned) [Compound 313A, 1-methyl-N4-(3,4,5-trimethylphenyl)cyclohexane-1,4-diamine] gave a negative-log EC50 (pEC50) of 7.00 to 10.00. As to `COc1cc(NC[C@H]2CC[C@H](N)CC2)ccc1N1C[C@@H](C)O[C@@H](C)C1` [Compound 495, N-(((1r,4R)-4-aminocyclohexyl)methyl)-4-((2S,6R)-2,6-dimethylmorpholino)-3-methoxyaniline], the pEC50 was 6.00 to 7.00.

Consider `Cc1nc(N2CCC(C(F)(F)F)CC2)ccc1NC[C@H]1CC[C@H](N)CC1` [Compound 371, N-(((1r,4r)-4-aminocyclohexyl)methyl)-2-methyl-6-(4-(trifluoromethyl)piperidin-1-yl)pyridin-3-amine], for which the pEC50 was 7.00 to 10.00.

On to `Cc1nc(N2CCC(C(F)(F)F)CC2)ncc1NC1CCC(N)CC1` (single isomer, unassigned) [Compound 65A, N1-(4-methyl-2-(4-(trifluoromethyl)piperidin-1-yl)pyrimidin-5-yl)cyclohexane-1,4-diamine], for which the pEC50 was 7.00 to 10.00. As to `Cn1cc(NCC2CCC(Nc3ccc(C(C)(C)C)cc3)CC2)cn1` (stereo not shown) [Compound 346, N-((4-((4-(tert-butyl)phenyl)amino)cyclohexyl)methyl)-1-methyl-1H-pyrazol-4-amine], the pEC50 was 7.00 to 10.00. For `NC1CCC(Nc2ccc(C3CCCC3)cc2)CC1` (single isomer, unassigned) [Compound 139A, N1-(4-cyclopentylphenyl)cyclohexane-1,4-diamine], the pEC50 was 7.00 to 10.00. On the same count and under the same terms, in the case of `N[C@H]1CC[C@H](CNc2ccc(N3CCC(C(F)(F)F)CC3)nc2F)CC1` [Compound 395, N-(((1r, 4r)-4-aminocyclohexyl)methyl)-2-fluoro-6-(4-(trifluoromethyl)piperidin-1-yl)pyridin-3-amine] it was 7.00 to 10.00; in that of `CCOCC(C)(C)c1ccc(NC2CCC(N)CC2)cc1` (stereo not shown) [Compound 320A, N1-(4-(1-ethoxy-2-methylpropan-2-yl)phenyl)cyclohexane-1,4-diamine], 6.00 to 7.00; in that of `CC(C)(C)c1ccc(NCC2CCC(CN)C2)cc1` (stereo not shown) [Compound 340, N-((3-(aminomethyl)cyclopentyl)methyl)-4-(tert-butyl)aniline], 7.00 to 10.00. As for `Cc1nc(N2CC(C)OC(C)C2)ccc1NC1CCC(N)CC1` (stereo not shown) [Compound 443, N1-(6-(2,6-dimethylmorpholino)-2-methylpyridin-3-yl)cyclohexane-1,4-diamine], the pEC50 was 6.00 to 7.00. Consider `CC(=O)N1C(C)CN(c2ccc(NC3CC4(CC(N)C4)C3)c(C)n2)CC1C` (stereo not shown) [Compound 555, 1-(4-(5-((6-aminospiro[3.3]heptan-2-yl)amino)-6-methylpyridin-2-yl)-2,6-dimethylpiperazin-1-yl)ethan-1-one], for which the pEC50 was 7.00 to 10.00. Consider `[2H]C1([2H])CC(N)CC([2H])([2H])C1([2H])Nc1ccc(C(C)(C)C)cc1` (stereo not shown) [Compound 347, N1-(4-(tert-butyl)phenyl)cyclohexane-1,2,2,6,6-d5-1,4-diamine], for which the pEC50 was 7.00 to 10.00. Compound `CC1CN(c2ccc(NC3CC4(CC(N)C4)C3)cc2F)CC(C)O1` (stereo not shown) [Compound 457, N2-(4-(2,6-dimethylmorpholino)-3-fluorophenyl)spiro[3.3]heptane-2,6-diamine] had a pEC50 of 6.00 to 7.00. `CC1CN(c2ccc(NC3C4CC5CC3CC(CN)(C5)C4)cc2)CC(C)O1` (stereo not shown) [Compound 426, 5-(aminomethyl)-N-(4-(2,6-dimethylmorpholino)phenyl)adamantan-2-amine]: the pEC50 is 7.00 to 10.00. `CC(C)c1ccc(NC2CCC(N)CC2)cc1` (stereo not shown) [Compound 127, N1-(4-isopropylphenyl)cyclohexane-1,4-diamine]: the pEC50 was 6.00 to 7.00.

The compound `CC1(N)CCC(Nc2ccc3c(c2)CCC3)CC1` (stereo not shown) [Compound 99, N1-(2,3-dihydro-1H-inden-5-yl)-4-methylcyclohexane-1,4-diamine] had a negative logarithm of the EC50 (pEC50) of 7.00 to 10.00. The same measure, in the same setting: in the case of `CC(C)C1CCN(c2ncc(NC3C4CC5CC3CC(O)(C5)C4)cn2)CC1` (stereo not shown) [Compound 424, 4-((2-(4-isopropylpiperidin-1-yl)pyrimidin-5-yl)amino) adamantan-1-ol] it was 7.00 to 10.00; in that of `NC1CCC(Nc2cccnc2)CC1` (stereo not shown) [Compound 163, N1-(pyridin-3-yl)cyclohexane-1,4-diamine], 5.00 to 6.00. Regarding `Cc1c(NC[C@H]2CC[C@H](N)CC2)ccc(N2CC(C)OC(C)C2)c1C` (stereo partly shown) [Compound 452, N-(((1r,4r)-4-aminocyclohexyl)methyl)-4-(2,6-dimethylmorpholino)-2,3-dimethylaniline], the pEC50 was 7.00 to 10.00. `CC(C)C1CCN(c2ncc(NC3CCNCC3)cn2)CC1` [Compound 35, 2-(4-isopropylpiperidin-1-yl)-N-(piperidin-4-yl)pyrimidin-5-amine] had a pEC50 of 7.00 to 10.00. Same read-out and setting: in the case of `Cc1nc(N2C[C@@H](C)N(CC(F)(F)F)[C@@H](C)C2)ccc1NC1CCC(N)CC1` (stereo partly shown) [Compound 542] it was 7.00 to 10.00; in that of `CC1(C)CCC(c2ccc(NC3CCOCC3)cc2)CC1` [Compound 93, N-(4-(4,4-dimethylcyclohexyl)phenyl)tetrahydro-2H-pyran-4-amine], 7.00 to 10.00; in that of `Cc1nc(N2CCC(C)(C)CC2)ccc1NC1CCC(CN)CC1` (stereo not shown) [Compound 32A, N-(4-(aminomethyl)cyclohexyl)-6-(4,4-dimethylpiperidin-1-yl)-2-methylpyridin-3-amine], 7.00 to 10.00. On to `CC(C)C1CCN(c2ncc(NC3CCC(N)CC3)cn2)CC1` (stereo not shown) [Compound 34A, N1-(2-(4-isopropylpiperidin-1-yl)pyrimidin-5-yl)cyclohexane-1,4-diamine], for which the pEC50 was 7.00 to 10.00. As to `NC1CCC(Nc2ccc(C3CCCCC3)cc2)CC1` (stereo not shown) [Compound 122, N1-(4-cyclohexylphenyl)cyclohexane-1,4-diamine], the pEC50 was 7.00 to 10.00. `Cc1ccc(NC2CCC(N)CC2)cc1` (stereo not shown) [Compound 128, N1-(p-tolyl)cyclohexane-1,4-diamine] had a pEC50 of 6.00 to 7.00.

The same assay, now with this note: Homo sapiens, HT-1080, 20 h, ferroptosis inducer RSL3, 20 hours, ferroptosis inhibitory activity, Table 3.
`Cc1nc(N2CCOC3(CC3)C2)ccc1NC1CC2(CC(N)C2)C1` (stereo not shown) [Compound 623, N^2-(2-methyl-6-(4-oxa-7-azaspiro[2.5]octan-7-yl)pyridin-3-yl)spiro[3.3]heptane-2,6-diamine] had a pEC50 of 7.00 to 10.00.

Staying with this assay, now noted: Homo sapiens, ferroptosis inducer RSL3, 20 hours, ferroptosis inhibitory activity, Table 2.
For `NC1CCC(Nc2ccc(C3CCC3)cc2)CC1` (stereo not shown) [Compound 318A, 1-N-(4-cyclobutylphenyl)cyclohexane-1,4-diamine], the pEC50 is 7.00 to 10.00.

Still in this assay, the particulars now being: ferroptosis inducer RSL3, 20 hours, ferroptosis inhibitory activity, Table 2.
With `Cc1cc(N2CC(C)OC(C)C2)ccc1NCC1CCC(N)CC1` (stereo not shown) [Compound 407, N-(((1r,4r)-4-aminocyclohexyl)methyl)-4-(2,6-dimethylmorpholino)-2-methylaniline], the negative-log EC50 (pEC50) was 7.00 to 10.00.

The record behind these values is patent US20240360114A1 (SIRONAX LTD., priority 2021, published 2024).
